According to patent US20260374739A1, “SMALL MOLECULAR WEIGHT CHEMICAL COMPOUND TO ANTAGONIZE EPH-EPHRIN TETRAMERIZATION AND INHIBIT BIDIRECTIONAL SIGNALING” (THE BOARD OF REGENTS OF THE UNIVERSITY OF TEXAS SYSTEM, priority 2022, published 2026):
“And” between values parts separate entries of the source, which are not always exact repeats. Equal entries are not always repeated.

Key:
EphrinB2-EphB2 [1] = target: T1, EphrinB2-EphB2 (Homo sapiens, UniProt P29323); assay: Octet tetramerization inhibition, immobilized human EphrinB2 binding to 50 nM soluble human EphB2; conditions: EphrinB2-EphB2
T1 construct: soluble human EphB1-His, EphB2-His, and EphB4-His ectodomains; commercially available human EphrinB1-Fc (EB1), EphrinB2-Fc (EB2), and EphrinB3-Fc (EB3) ectodomain proteins; purchased
T1 sequence (P29323 19-543 limits assumed): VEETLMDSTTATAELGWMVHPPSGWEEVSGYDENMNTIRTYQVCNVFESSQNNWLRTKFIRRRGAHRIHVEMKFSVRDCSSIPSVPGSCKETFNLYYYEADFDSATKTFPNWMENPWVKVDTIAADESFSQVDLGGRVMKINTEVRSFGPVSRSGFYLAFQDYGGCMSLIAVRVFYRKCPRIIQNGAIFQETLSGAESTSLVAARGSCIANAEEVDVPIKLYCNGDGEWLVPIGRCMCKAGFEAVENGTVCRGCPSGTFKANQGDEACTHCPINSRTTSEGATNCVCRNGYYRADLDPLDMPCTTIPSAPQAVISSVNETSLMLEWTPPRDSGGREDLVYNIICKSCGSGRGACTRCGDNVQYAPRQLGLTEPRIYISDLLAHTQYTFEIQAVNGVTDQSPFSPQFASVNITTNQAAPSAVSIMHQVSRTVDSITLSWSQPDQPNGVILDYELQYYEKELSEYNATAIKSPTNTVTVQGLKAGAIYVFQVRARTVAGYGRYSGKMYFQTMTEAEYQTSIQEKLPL

EphrinB2-EphB1 = target: T2, EphrinB2-EphB1 (Homo sapiens, UniProt P54762); assay: Octet 80 sec association/500 sec dissociation, immobilized human EphrinB2-Fc binding to soluble human EphB1-His; conditions: immobilized human EphrinB2, 25 nM soluble human EphB1; for EphB1 Inhibition Percent, Inhibition of Association ONLY: at 3.2 μM and 80 seconds; for EphB1 Inhibition Percent, Inhibition of Association-Dissociation: at 3.2 μM and 580 seconds
T2 construct: soluble human EphB1-His, EphB2-His, and EphB4-His ectodomains; commercially available human EphrinB1-Fc (EB1), EphrinB2-Fc (EB2), and EphrinB3-Fc (EB3) ectodomain proteins; purchased
T2 sequence (P54762 18-540 limits assumed): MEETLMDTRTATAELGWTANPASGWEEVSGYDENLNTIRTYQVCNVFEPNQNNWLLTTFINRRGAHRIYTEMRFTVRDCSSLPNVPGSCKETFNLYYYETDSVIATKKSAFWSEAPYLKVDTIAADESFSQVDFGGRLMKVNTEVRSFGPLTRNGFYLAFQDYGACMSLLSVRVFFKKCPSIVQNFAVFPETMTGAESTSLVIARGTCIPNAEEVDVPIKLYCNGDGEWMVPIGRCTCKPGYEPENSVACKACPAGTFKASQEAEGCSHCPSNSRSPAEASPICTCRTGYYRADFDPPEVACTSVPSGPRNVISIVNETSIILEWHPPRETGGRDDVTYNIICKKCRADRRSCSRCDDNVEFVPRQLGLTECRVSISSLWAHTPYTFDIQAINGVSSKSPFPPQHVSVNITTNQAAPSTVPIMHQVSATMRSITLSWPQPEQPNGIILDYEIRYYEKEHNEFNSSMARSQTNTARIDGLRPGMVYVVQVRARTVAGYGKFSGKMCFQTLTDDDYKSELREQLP
Protocol: In another experiment, whether certain A20 analogs might have specificity for different Eph receptors was tested. An Octet RED384 system was used to obtain biophysical ON-OFF binding data (association-dissociation) for the three different human EphrinB2-EphB1, EphrinB2-EphB2, and EphrinB2-EphB4 protein-protein interactions and to assess the effect of A20 chemicals on the binding kinetics.
FIGS. 72A-72C show three example Octet sensorgram response traces for the immobilized human EphrinB2 ectodomain protein binding to soluble forms of the human EphB1, EphB2, and EphB4 ectodomain proteins, in the absence or presence of an A20 chemical (buffer conditions are always PBSTD:PBS with 0.05% Tween-20, 1% DMSO, and +/− indicated chemical). After loading EphrinB2-Fc protein to Octet AHC biosensors, washing, and obtaining stable baseline measurements in the appropriate PBSTD (either with or without indicated chemical), the sensors are placed in its buffer that also contains the indicated soluble EphB protein for the association step (0-80″), and then returned to its buffer for the dissociation step (81″-580″). In each figure (FIGS. 72A-72C), a sensorgram run using 10 μM of the 2×HCl salt form of A20-I is compared to the no compound control run to exemplify the maximum level of reduced response signal typically obtained with a potent A20 chemical.
Because the response levels during the dissociation step plateau for the EphrinB2-EphB2 and EphrinB2-EphB1 interactions by the first 80″, AUCs were also calculated for run data encompassing the first 160″ of each experiment to account for both the 80″ association data (red asterisks) and the first 80″ of dissociation data (marked by green line and asterisks).
The selectivity of another A20 analog (a 3×HCL salt form of compound BQPB4) in comparison to previously tested compound, A20-1, was tested as described in Example 27 above.
Further to the experiments listed above, a series of dose-response experiments were conducted to determine the IC50 of a selected A20 chemical (A20-1) on the kinetics of human EphrinB2 ligand ectodomain protein binding to its cognate human EphB1, EphB2, and EphB4 receptor ectodomain proteins. FIG. 74A-74C are representative sensorgrams showing the effect of 0, 0.1, 0.2, 0.4, 0.8, 1.6, and 3.2 μM, concentrations of the 2×HCl salt of A20-I along with a 10 μM max standard (also A20-1) on three different Ephrin-EphB interactions (e.g., EphB1 in FIG. 74A, EphB2 in FIG. 74B and EphB4 in FIG. 74C). […] Additional IC50 values were determined at specific timepoints, at 75″ into the association step and at 55″ into the dissociation step (135″).
All absolute and relative IC50 values are provided in the Table 6 below, where absolute are based off the full binding sensorgram traces, and relative are based off of the max control traces.
In another experiment, the % inhibition for various A20 analog chemicals against the three different EphrinB2-EphB protein interactions was determined. Specifically, the percent inhibition for immobilized human EphrinB2-Fc binding to 25 nM soluble human EphB1-His (FIG. 76A, enlarged in FIG. 76D), EphB2-His (FIG. 76B, enlarged in FIG. 76E), and EphB4-His (FIG. 76C, enlarged in FIG. 76F) with 3511-I, 8009-9255, QTM-Br, A19, A19-NO2, and IM (all at 3.2 μM) was determined.

EphrinB2-EphB2 [2] = target: T1, EphrinB2-EphB2; assay: Octet 80 sec association/500 sec dissociation, immobilized human EphrinB2-Fc binding to soluble human EphB2-His; conditions: immobilized human EphrinB2, 25 nM soluble human EphB2; for EphB2 Inhibition Percent, Inhibition of Association ONLY: at 3.2 μM and 80 seconds; for EphB2 Inhibition Percent, Inhibition of Association-Dissociation: at 3.2 μM and 580 seconds
Summary of the method: (§1)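 EphrinB2-Fc captured on AHC biosensors, then soluble His-tagged EphB ectodomain (25 nM for % inhibition runs) associated 80 s and dissociated 500 s in PBS, 0.05% Tween-20, 1% DMSO ± compound. Compounds tested at 0.1–3.2 μM with a 10 μM max standard; IC50 from AUC of full traces or at 75 s and 135 s.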

EphrinB2-EphB4 = target: T3, EphrinB2-EphB4 (Homo sapiens, UniProt P54760); assay: Octet 80 sec association/500 sec dissociation, immobilized human EphrinB2-Fc binding to soluble human EphB4-His; conditions: immobilized human EphrinB2, 25 nM soluble human EphB4; for EphB4 Inhibition Percent, Inhibition of Association ONLY: at 3.2 μM and 80 seconds; for EphB4 Inhibition Percent, Inhibition of Association-Dissociation: at 3.2 μM and 580 seconds
T3 construct: soluble human EphB1-His, EphB2-His, and EphB4-His ectodomains; commercially available human EphrinB1-Fc (EB1), EphrinB2-Fc (EB2), and EphrinB3-Fc (EB3) ectodomain proteins; purchased
T3 sequence (P54760 16-539 limits assumed): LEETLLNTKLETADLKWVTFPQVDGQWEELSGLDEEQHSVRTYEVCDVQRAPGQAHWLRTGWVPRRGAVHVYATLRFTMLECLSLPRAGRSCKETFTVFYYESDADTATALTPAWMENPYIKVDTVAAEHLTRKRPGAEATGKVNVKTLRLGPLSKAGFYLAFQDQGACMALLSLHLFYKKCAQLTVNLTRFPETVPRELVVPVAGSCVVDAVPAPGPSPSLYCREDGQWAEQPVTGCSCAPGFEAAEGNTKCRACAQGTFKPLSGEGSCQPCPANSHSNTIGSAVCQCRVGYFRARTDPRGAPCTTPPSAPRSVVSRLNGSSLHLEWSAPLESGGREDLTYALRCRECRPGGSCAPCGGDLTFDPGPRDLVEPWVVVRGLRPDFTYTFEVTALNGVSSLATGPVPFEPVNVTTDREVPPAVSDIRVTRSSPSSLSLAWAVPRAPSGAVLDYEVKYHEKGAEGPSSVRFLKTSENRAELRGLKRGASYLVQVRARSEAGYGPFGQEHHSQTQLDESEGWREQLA
Summary of the method: as §1

[3] = Absolute Association IC50 (300 sec), Table A
[4] = Absolute Dissociation IC50 (450 sec), Table A
[5] = Relative AUC/IC50, Table A, compound 7: association only
[6] = Relative Association IC50 (300 sec), Table A
[7] = Relative Dissociation IC50 (450 sec), Table A

Structure (SMILES) | IC50 (EphrinB2-EphB2 [1]; Absolute AUC/IC50, Table A) | IC50 (EphrinB2-EphB2 [1]; [3]) | IC50 (EphrinB2-EphB2 [1]; [4]) | IC50 (EphrinB2-EphB2 [1]; [5]) | IC50 (EphrinB2-EphB2 [1]; [6]) | IC50 (EphrinB2-EphB2 [1]; [7]) | EphB1 Inhibition Percent, Inhibition of Association ONLY (EphrinB2-EphB1) | EphB1 Inhibition Percent, Inhibition of Association-Dissociation (EphrinB2-EphB1) | EphB2 Inhibition Percent, Inhibition of Association ONLY (EphrinB2-EphB2 [2]) | EphB2 Inhibition Percent, Inhibition of Association-Dissociation (EphrinB2-EphB2 [2]) | EphB4 Inhibition Percent, Inhibition of Association ONLY (EphrinB2-EphB4) | EphB4 Inhibition Percent, Inhibition of Association-Dissociation (EphrinB2-EphB4)
O=S1(=O)CCN(Cc2cc(I)c(O)c3ncccc23)CC1 [Compound 19, 4-((8-hydroxy-7-iodoquinolin-1-ium-5-yl)methyl)thiomorpholin-4-ium 1,1-dioxide chloride] | > 1.6 µM | 1.6 µM | 1.41 µM | 0.69 µM | 0.83 µM | 0.81 µM | 33.9% | 50.1% | 53.7% | 71.4% | 12.9% | 36.2%
O=[N+]([O-])c1cc(CN2CCS(=O)(=O)CC2)c2cccnc2c1O [Compound 21, 4-((8-hydroxy-7-nitroquinolin-1-ium-5-yl)methyl)thiomorpholin-4-ium 1,1-dioxide chloride] | 1.15 µM and 1.95 µM | 1.74 µM | 1.7 µM | ~1 µM and 0.89 µM | 0.91 µM | 1.07 µM and 1 µM | 24.0% and 23.8% | 36.0% and 28.9% | 36.7% and 57.0% | 51.7% and 69.2% | 0% and 4.3% | –
Oc1ccc(CN2CCN(c3ccccc3)CC2)c2cccnc12 [Compound 23, 8-hydroxy-5-((4-phenylpiperazin-1-ium-1-yl)methyl)quinolin-1-ium chloride] | > 1.6 µM | > 1.6 µM | > 1.6 µM | > 1.6 µM | > 1.6 µM | > 1.6 µM | 30.8% and 16.2% | 41.2% and 24.8% | 66.0% and 38.5% | 79.1% and 49% | 23.1% and 12.1% | 26.7% and 17.9%
Oc1ccc(CN2CCN(c3ccc(Br)cc3)CC2)c2cccnc12 [Compound 27, 5-((4-(4-bromophenyl)piperazin-1-ium-1-yl)methyl)-8-hydroxyquinolin-1-ium chloride] | > 1.6 µM | > 1.6 µM | > 1.6 µM | 0.42 µM | – | – | 24.2% and 33.8% | 57.1% and 43.8% | 16.8% and 29.2% | 60.9% and 43.7% | 11.4/11.4% | 19.5% and 12.6%
Oc1ccc(CN2CCN(c3ccc(I)cc3)CC2)c2cccnc12 [Compound 32] | > 1.6 µM | > 1.6 µM | > 1.6 µM | 0.79 µM | 1.4 µM | 1 µM | 24.5% | 40.5% | 63.9% | 78.2% | 33.8% | 42.5%
